Read-outs that look alike come from different tables or passages of the source.
What was measured:
[1] = system: recurrent or metastatic nasopharyngeal carcinoma patient; details: human, in vivo
Description: Inclusion criteria: eligible subjects must (1) be 18 years old or older, (2) have recurrent or metastatic nasopharyngeal carcinoma, (3) be refractory to standard systemic therapy or have progressive disease after 6 months of radiotherapy and chemotherapy, (4) have an ECOG score of 0 or 1, (5) have the normal organ function within 10 days […] treatment, (6) have no history of autoimmune diseases or other malignant cancers, and (7) have not received any anti-PD-1/or anti-PD-L1 immunotherapy before.
Subjects must have an evaluable lesion according to RECIST v 1.1, have not received anti-tumour monoclonal antibody drug treatment within 4 weeks before treatment, have not received any anti-tumour drug treatment within 2 weeks before treatment, and have not received systemic steroid drug treatment within 7 days before treatment.
From Dec. 22, 2016 to Feb. 19, 2019, a total of 279 patients with recurrent or metastatic NPC were screened from 17 centres in Chinese mainland, and 190 patients were enrolled in this study. […] Of the two histological subtypes, 182 patients (95.8%) had non-keratinizing NPC and 8 patients (4.2%) had keratinizing NPC. There were 116 patients (61.1%) who had received at least two kinds of systemic therapy.
Test drug: anti-PD-1 antibody toripalimab (WO 2014206107). […]

[2] = system: recurrent or metastatic nasopharyngeal carcinoma patient; experiment: Single-arm phase II clinical trial of toripalimab: anti-tumour activity by RECIST v1.1 / irRECIST; assay type: in vivo, human
Procedure: Test drug: anti-PD-1 antibody toripalimab (WO 2014206107).
The subjects were evaluated every 8 weeks for the first year and every 12 weeks thereafter according to RECIST v1.1 and the Immune-Related Response Evaluation Criteria in Solid Tumour (irRECIST). The subjects were evaluated every 3 months after drug discontinuance.
This was a single-arm, phase II, open-label clinical trial. This study was conducted to evaluate the safety and anti-tumour activity of an anti-PD-1 antibody in treatment of a recurrent or metastatic nasopharyngeal carcinoma patient.

[3] = Immunogenicity: anti-drug antibodies (ADAs) in the phase II trial; assay type: in vivo, human
Description: Anti-drug antibodies (ADAs) were detected in 190 patients. Seven cases (3.7%) were positive for ADA, including four consecutive positive samples.

[4] = system: recurrent or metastatic nasopharyngeal carcinoma patient; assay type: in vivo, human
Procedure: The PD-L1 expression status in tumour biopsies was determined by SP142 IHC staining, with tumour proportion score (TPS) > 1% being determined as positive.
Tumour biopsy tissues and matched peripheral blood samples from subjects were subjected to whole exome sequencing (WES) to identify tumour-specific mutations. […] In this study, the top 10% or 20% cut-off values of TMB (2.9 Muts/Mb and 2.0 Muts/Mb, respectively) were selected for evaluation of clinical response.
The correlation between genomic changes and clinical efficacy was analysed.
Plasma was collected from patients before administration, and the number of copies of EBV DNA was analysed by qRT-PCR once every 4 weeks.

[5] = Investigator, RECIST1.1, n = 190
[6] = Investigator, irRECIST, n = 190
[7] = at least two prior treatments (n = 116)
[8] = keratinizing versus non-keratinizing NPC

With toripalimab the “patients subjected to dose interruption due to TRAEs” value [1] was 3.7%, the CR ([2]; IRC, RECIST1.1, n = 190) was 5 (2.6%) and the NE ([2]; IRC, RECIST1.1, n = 190) was 28 (14.7%). The PD ([2]; IRC, RECIST1.1, n = 190) was 86 (45.3%), the PR ([2]; IRC, RECIST1.1, n = 190) was 34 (17.9%) and the CR ([2]; IRC, RECIST v1.1, 190 patients) was 5 cases. For the same substance, the PR ([2]; IRC, RECIST v1.1, 190 patients) was 34 cases, the CR ([2]; IRC, irRECIST, n = 190) was 5 (2.6%) and the NE ([2]; IRC, irRECIST, n = 190) was 28 (14.7%). For the same substance, the PD ([2]; IRC, irRECIST, n = 190) was 71 (37.4%), the PR ([2]; IRC, irRECIST, n = 190) was 34 (17.9%) and the ORR ([2]; IRC, keratinizing NPC (n = 8)) was 62.5%. For the same substance, the ORR ([2]; IRC, non-keratinizing NPC (n = 182)) was 18.7%, the CR [2, 5] was 5 (2.6%) and the “DCR (%)” value [2, 5] was 88 (46.3%). The NE [2, 5] was 24 (12.6%), the “ORR (%)” value [2, 5] was 40 (21.1%) and the PD [2, 5] was 78 (41.1%). The PR [2, 5] was 35 (18.4%), the CR [2, 6] was 5 (2.6%) and the “DCR (%)” value [2, 6] was 103 (54.2%). For the same substance, the NE [2, 6] was 28 (14.7%), the “ORR (%)” value [2, 6] was 44 (23.2%) and the PD [2, 6] was 59 (31.1%). For the same substance, the PR [2, 6] was 39 (20.5%), the “median DOR” value ([2]; all subjects) was 12.8 months and the “median overall survival (mOS)” value ([2]; all subjects) was 17.4 months. For the same substance, the “median progression-free survival (mPFS)” value ([2]; all subjects) was 1.9 months, the “median time to response” value ([2]; all subjects) was 1.8 months and the “patients who had died” value ([2]; as of Feb. 19, 2020, 190 patients) was 49.5%. For the same substance, the mOS [2, 7] was 15.1 months, the mPFS [2, 7] was 2.0 months and the “median DOR” value [2, 7] was 21.5 months. For the same substance, the OS ([2]; keratinizing NPC) was “not reached”, the PFS ([2]; keratinizing NPC) was 16.6 months and the “HR for OS” value [2, 8] was 0.51. For the same substance, the “HR for PFS” value [2, 8] was 0.46, the “subjects who had reductions in target lesions relative to baseline” value ([2]; n = 190) was 38.4% and the “subjects with a reduction greater than or equal to 30% in target lesions from baseline” value ([2]; n = 190) was 25.3%. The OS ([2]; non-keratinizing NPC) was 15.1 months, the PFS ([2]; non-keratinizing NPC) was 1.9 months and the ORR ([2]; patients who had received at least two prior treatments (n = 116)) was 21.6%. The “median OS” value ([2]; subjects experiencing objective response (n = 39) or stable disease (n = 38)) was “not reached”, the “median OS” value ([2]; subjects with progressive disease (n = 113)) was 8.4 months and the “cases positive for ADA” value ([3]; 190 patients) was 3.7%. For the same substance, the “difference in incidence of AEs, SAEs and AEs of grade 3 or above, drug discontinuance or dose delay, and clinical efficacy” value ([3]; between ADA positive and negative patients) was “no significant difference”, the PFS ([4]; 10% of patients with the highest TMB value, similar to the 90% with the lowest TMB value) was 1.9 months and the ORR ([4]; 11 patients with genome amplification of CCND1 and/or FGF14, FGF3 or FGF4 chromosome 11q13 region) was 0%. For the same substance, the “median time of at least 2-fold increase in plasma EBV DNA copies prior to imaging-confirmed progressive disease” value ([4]; 14 patients who experienced progressive disease) was 3 months, the ORR ([4]; 19 patients with ETV6 mutations) was 5.3% and the ORR ([4]; PD-L1+ patients) was 27.1%. The ORR ([4]; PD-L1- patients) was 19.4%, the mOS ([4]; PD-L1 > 25%) was “not reached” and the mPFS ([4]; PD-L1 > 25%) was 7.2 months. The “HR for OS” value ([4]; PD-L1 > 25% versus ≤ 25%) was 0.57, the “HR for PFS” value ([4]; PD-L1 > 25% versus ≤ 25%) was 0.64 and the mPFS ([4]; PD-L1 ≤ 25%) was 1.9 months. For the same substance, the ORR ([4]; at least 2-fold decrease in plasma EBV DNA copies on day 28 (n = 60)) was 48.3%, the ORR ([4]; baseline EBV titre < 10000 IU/mL) was 26.7% and the ORR ([4]; baseline EBV titre ≥ 10000 IU/mL) was 15.4%. For the same substance, the OS ([4]; high TMB patients) was 9.2 months, the ORR ([4]; less than 2-fold decrease in plasma EBV DNA copies on day 28 (n = 88)) was 5.7% and the OS ([4]; low TMB patients) was 17.4 months. The ORR ([4]; patients with PD-L1 > 25%) was 38.1%, the ORR ([4]; patients with PD-L1 ≤ 25%) was 19.3% and the “median decrease in the number of copies of EBV DNA in plasma from baseline to the nadir” value ([4]; patients with objective response (n = 34)) was 31 fold. The “change in the number of copies of EBV DNA in plasma from baseline” value ([4]; patients with progressive disease (n = 80)) was “no change”, the “decrease in the number of copies of EBV DNA in plasma from baseline to the nadir” value ([4]; patients with stable disease (n = 35)) was 3 fold and the ORR ([4]; top 10% of patients by TMB (cut-off 2.9 Muts/Mb)) was 17.6%. For the same substance, the ORR ([4]; top 20% of patients by TMB (cut-off 2.0 Muts/Mb)) was 14.3%.
